Experimental data taken from patent US20020016293A1 (priority 2000, published 2002).
Where a name gives a salt, the structure may show the parent alone. Read-outs that look alike come from different tables or passages of the source. Non-standard residues stand in square brackets, D forms with d. Residues, ends and D or L forms follow the SMILES beside them. ξ: configuration not given here. *: point of attachment. NMeI = CC[C@H](C)[C@H](NC)C(=O)O; NMeξIle = CC[C@H](C)C(NC)C(=O)O; NMeD = CN[C@@H](CC(=O)O)C(=O)O; NMeV = CN[C@H](C(=O)O)C(C)C; Pip = O=C(O)[C@@H]1CCCCN1; Lac = C[C@H](O)C(=O)O; OtBu = CC(C)(C)O*

Legend:
[1] = cited from earlier work; for absorption (in words): oral unless stated
p-glycoprotein [2] = conditions: cited from earlier work
[3] = system: multidrug resistant cells; conditions: no change in nonresistant parental cells; cited from earlier work
[4] = Plasma pharmacokinetics of flavopiridol and flavopiridol glucuronide in metastatic renal cancer patients (HPLC); format: in vivo, human
Source text: All patients had metastatic renal cancer. […] Written informed consent was obtained from each patient in accordance with institutional and Federal guidelines. […] Toxicity assessment was done according to the Cancer and Leukemia Group B (CALGB) expanded toxicity criteria. For grade 3 or greater diarrheal episodes, patients were given loperamide or diphenoxylate hydrochloride plus atropine sulfate (Lomotil®). If diarrhea continued, treatment with octreotide acetate was begun. […] Heparinized blood samples were drawn at 23, 47, and 71 h into the infusion. Plasma was separated immediately by centrifugation and stored at −70° C. until analysis. Chemicals were obtained from Fisher Scientific (Itasca, Ill.) and Sigma Chemical Co. (St. Louis, Mo.). Quantitation of flavopiridol and its glucuronide in plasma was performed by high-pressure liquid chromatography (HPLC). […] Louis, Mo.), and these samples were incubated for 2 h (25° C.) prior to the addition of acetonitrile. […] Human plasma for the preparation of calibration standards was purchased from the Blood Bank at the University of Chicago Hospitals. […] Plasma samples for pharmacokinetics were collected during the first cycle of treatment (at 23, 47, and 71 h). […] Data are expressed as median values and interquartile range (the range of values between the 25th and the 75th percentile of the distribution). Significance has been tested by two-sided statistical tests. […] Moreover, Fisher's exact test was used to assess the association of flavopiridol systemic metabolism with the development of diarrhea. The distribution of the metabolic ratios at 71 h was investigated by constructing a frequency distribution histogram.

p-glycoprotein [5] = conditions: cited from earlier work; remark: listed apart in the source
[6] = system: p-glycoprotein expressing cell lines; conditions: cited from earlier work
neoplastic cells = conditions: in vitro; cited from earlier work
[7] = Diarrhea (CALGB expanded toxicity criteria) in patients given flavopiridol, by glucuronidation phenotype; format: in vivo, human
Source text: Toxicity assessment was done according to the Cancer and Leukemia Group B (CALGB) expanded toxicity criteria. For grade 3 or greater diarrheal episodes, patients were given loperamide or diphenoxylate hydrochloride plus atropine sulfate (Lomotil®). If diarrhea continued, treatment with octreotide acetate was begun.
Data are expressed as median values and interquartile range (the range of values between the 25th and the 75th percentile of the distribution). Significance has been tested by two-sided statistical tests. […] For this analysis, the adjusted P<0.017 (0.05/3) was considered significant.
Poor and extensive glucuronidators had metabolic ratios lower and higher than 1.2, respectively.

[8] = FLAVO glucuronidation assay, normal human liver microsomes; format: in vitro ADME; conditions: pooled human liver microsomes, pH 7.4; pool of human liver microsomes, substrate 0.1 to 3 mM, Lineweaver-Burke
Procedure: FLAVO glucuronidation assay. Reaction conditions were optimized using a range of substrate (0.02-1 mM), human liver microsomal protein (0.25-6 mg/ml) and UDPGA (2-10 mM) concentrations, as well as varying detergents (Brij 58, OLPC, CHAPS, Triton X-100, OLPC), and incubation times (0.5-4 h). […] The final incubation volume (250 μl) contained 50 mM tris-HCl (pH 7.4), 10 mM magnesium chloride, 0.5 mM FLAVO, 3 mg/ml protein, and 3 mM UDPGA. After incubation in a shaking water bath at 37° C. for 3 h, the reaction was terminated by the addition of 1 ml of acetonitrile. […] The supernatant was spiked with 100 μl of internal standard (100 μg/ml flavone in acetonitrile), and evaporated to dryness using nitrogen gas. Control experiments were performed simultaneously by omitting UDPGA. […] Aliquots (125 μl) were analyzed by high performance liquid chromatography (HPLC; Hitachi Instruments, Inc., San Jose, Calif., USA) with UV detection (265 nm). Reversed-phase chromatography was carried out using a μBondapak Phenyl column (10 μm, 3.9×300 mm; Waters Corporation, Milford, Mass., USA), and a μBondapak Phenyl guard-pak insert (Waters Corporation, Milford, Mass., USA).
Data analysis and statistics. Results were expressed as mean ± standard deviation (SD) of a single experiment performed in triplicate. […]

In the case of `CN(C)CCCN1c2ccccc2Sc2ccc(Cl)cc21` [Chlorpromazine hydrochloride, 10H-Phenothiazine-10-propanamine, 2-chloro-N,N-dimethyl-, mono hydrochloride], the “volume of distribution after intramuscular administration” value ([1]; intramuscular) is given as 21.8 L/kg.

In the case of `CC(C)(C)c1ccc(C(O)CCCN2CCC(C(O)(c3ccccc3)c3ccccc3)CC2)cc1` (stereo not drawn) [Terfenadine, 1-Piperidinebutanol, α-[4-(1,1-dimethylethyl)phenyl]-4-(hydroxydiphenylmethyl)-], the “bound to plasma protein” value ([1]; human, in vivo) is listed as 97% and the “absorption (in words)” value [1] is listed as “absorbed rapidly and almost completely”.

For “benzothiazepin-4(5H)-one, 3-(acetyloxy)-5-[2-(dimethylamino)ethyl]-2,3-dihydro-2-(4-methoxyphenyl)-, (+)-cis-, monohydrochloride [Diltiazem]”, the “bound to plasma protein” value ([1]; human, in vivo) is listed as 70-80%, the “drug appearing unchanged in the urine” value ([1]; human, in vivo) is listed as “Less than 4%” and the “fraction of an oral dose absorbed” value ([1]; oral) is listed as 80%. The half-life ([1]; plasma/serum/elimination half-life as printed) was “about 4 hr”.

In the case of `C=C[C@H]1C[N@@]2CC[C@H]1C[C@@H]2[C@@H](O)c1ccnc2ccc(OC)cc12` [Quinidine], the “elimination by hepatic biotransformation” value ([1]; human, in vivo) is listed as 50-60%.

For `CC(C)NCC(O)COc1cccc2ccccc12` (centres unmarked) [Propranolol], the “bound to plasma protein” value ([1]; human, in vivo) is given as “Approximately 90%” and the “variability in plasma concentrations after oral administration” value ([1]; inter-individual) is given as “approximately 20 fold”.

In the case of `C[C@@H]1C[C@H]2[C@@H]3CCC4=CC(=O)C=C[C@]4(C)C3=CC[C@]2(C)[C@H]1C(=O)CN1CCN(c2cc(N3CCCC3)nc(N3CCCC3)n2)CC1` [Tirilazad], the “inhibition of photoaffinity labeling of p-glycoprotein relative to verapamil” value (p-glycoprotein [2]) is listed as “more effectively than does verapamil” and the “sensitization of resistant cells to killing by vinblastine” value [3] is listed as 66 fold.

For `CC[C@H](C)[C@H]1O[C@]2(CC[C@@H]1C)C[C@@H]1C[C@@H](C/C=C(\C)[C@@H](O[C@H]3C[C@H](OC)[C@@H](O[C@H]4C[C@H](OC)[C@@H](O)[C@H](C)O4)[C@H](C)O3)[C@@H](C)/C=C/C=C3\CO[C@@H]4[C@H](O)C(C)=C[C@@H](C(=O)O1)[C@]34O)O2` [ivermectin], the “time to peak concentrations in plasma” value ([1]; oral administration) is listed as no more than 4 h and the half-life ([1]; verapamil: normal persons) is listed as “about 10 hours”.

For `CCCN(CCC)S(=O)(=O)c1ccc(C(=O)O)cc1` [Probenecid], the “absorption (in words)” value [1] is given as “completely absorbed”.

In the case of `CN1CC[C@H](c2c(O[C@@H]3O[C@H](C(=O)O)[C@@H](O)[C@H](O)[C@H]3O)cc(O)c3c(=O)cc(-c4ccccc4Cl)oc23)[C@H](O)C1` [flavopiridol glucuronide, 7-O-β-glucopyranuronosyl-flavopiridol], the “inter-patient variability of plasma level (coefficient of variation) at 23 h” value ([4]; human, in vivo) is reported as 83%, the “inter-patient variability of plasma level (coefficient of variation) at 47 h” value ([4]; human, in vivo) is reported as 102% and the “inter-patient variability of plasma level (coefficient of variation) at 71 h” value ([4]; human, in vivo) is reported as 107%.

For `CCOC(=O)C(C)(C)Oc1ccc(Cl)cc1` [Clofibrate, propanoic acid, 2-(4-chlorophenoxy)-2-methyl-,ethyl ester], the half-life in anuria ([1]; anuria) is listed as “over 100 hr”, the “half-life, average or usual value” ([1]; human, in vivo) is listed as 11 h and the fraction metabolized ([1]; mostly to a glucuronide conjugate) is listed as “About 60%”.

For `OCCN1CCN(CCCN2c3ccccc3Sc3ccc(C(F)(F)F)cc32)CC1` [Fluphenazine hydrochloride], the “absorption (in words)” value [1] is listed as “absorbed rapidly”.

For `CC[C@H](C)C1C(=O)N(C)[C@@H]([C@@H](C)CC)C(=O)NCC(=O)N(C)[C@@H](C(C)C)C(=O)N[C@@H](Cc2ccc(OC)cc2)C(=O)O[C@@H](C)C(=O)N2CCCC[C@H]2C(=O)N(C)[C@@H](C(C)C)C(=O)N[C@@H](C(C)C)C(=O)N(C)[C@@H](CC(=O)OC(C)(C)C)C(=O)N1C` (some centres unmarked) [SDZ 280-446] (cyclo(G[NMeV]Y(Me)[Lac][Pip][NMeV]V[NMeD](OtBu)[NMeξIle][NMeI])), the “p-glycoprotein inhibition relative to verapamil” value (p-glycoprotein [5]) is listed as “stronger inhibitors than verapamil”.

For `COC(=O)[C@H]1[C@H]2C[C@@H]3c4[nH]c5cc(OC)ccc5c4CCN3C[C@H]2C[C@@H](OC(=O)c2cc(OC)c(OC)c(OC)c2)[C@@H]1OC` [Reserpine, Yohimban-16-carboxylic acid, 11,17-dimethoxy-18-[(3,4,5-trimethoxybenzoyl)oxy]-, methyl ester, (3β, 16β, 17α, 18β, 20α)-], the “absorption (in words)” value [1] is given as “absorbed poorly and erratically”.

For `OCCN1CCN(CC/C=C2\c3ccccc3Sc3ccc(C(F)(F)F)cc32)CC1` [trans-flupenthixol], the “potency for reversing MDR relative to equimolar concentrations of verapamil” value [6] is listed as “two- to three-fold more potent” and the “reversal of resistance to doxorubicin, vincristine, and colchicine” value [6] is listed as “fully reversed resistance”.

In the case of `CCC1(c2ccccc2)C(=O)NC(=O)NC1=O` [Phenobarbital, 2,4,6(1H,3H,5H)-Pyrimidinetrione, 5-ethyl-5-phenyl-], the “fraction of an oral dose absorbed” value ([1]; human, in vivo, po) is listed as “Approximately 80%”, the therapeutic plasma levels ([1]; human, in vivo) is listed as 10 to 30 µg/mL and the “time to peak plasma levels” value ([1]; human, in vivo) is listed as 16 to 18 h.

For `CCOC(=O)C1=C(C)NC(C)=C(C(=O)OC)C1c1cccc([N+](=O)[O-])c1` (centres unmarked) [Nitrendipine, 3,5-Pyridinedicarboxylic acid, 1,4-dihydro-2,6-dimethyl-4-(3-nitrophenyl)-, ethyl methyl ester], the “bound to plasma protein” value ([1]; human, in vivo) is listed as “About 98%” and the “half-life, average or usual value” ([1]; human, in vivo) is listed as 12 h.

For `O=C1NC(=O)C(c2ccccc2)(c2ccccc2)N1.[Na]` [Phenytoin Sodium, 2,4-Imidazolidinedione, 5,5-diphenyl-, monosodium salt], the lethal plasma levels ([1]; human, in vivo) is listed as roughly 100 µg/mL.

For `CN1CC[C@H](c2c(O)cc(O)c3c(=O)cc(-c4ccccc4Cl)oc23)[C@H](O)C1` [flavopiridol], the “inter-patient variability of plasma level (coefficient of variation) at 23 h” value ([4]; 23 h) was 81%, the concentration at 23 h ([4]; human, plasma, intravenous, 72 h-continuous infusion 50 mg/m2/day, first cycle, 23 h into the infusion, 22 patients, read-out: median plasma concentration (interquartile range) at 23 h) was 389 nM and the concentration at 47 h ([4]; human, plasma, intravenous, 72 h-continuous infusion 50 mg/m2/day, first cycle, 47 h into the infusion, read-out: median plasma concentration (interquartile range) at 47 h) was 412 nM. The concentration at 71 h ([4]; human, plasma, intravenous, 72 h-continuous infusion 50 mg/m2/day, first cycle, 71 h into the infusion, read-out: median plasma concentration (interquartile range) at 71 h) was 397 nM, the “concentrations showing differential growth inhibitory activity” value (neoplastic cells) was “below 200 nM” and the “extensive glucuronidators who did not develop diarrhea” value ([7]; extensive glucuronidators) was 73%. For the same compound, the “patients with grade 1 diarrhea” value ([7]; first cycle) was “Five”, the “patients with grade 2 diarrhea” value ([7]; first cycle) was “six” and the “patients with grade 3 diarrhea” value ([7]; first cycle) was “two”. The “extensive glucuronidators who did not develop diarrhea” value ([7]; metabolic ratio at 71 h higher than 1.2) was 8 of 11, the “poor glucuronidators who developed diarrhea” value ([7]; metabolic ratio at 71 h lower than 1.2) was 10 of 11 and the “diarrhea present in poor glucuronidators of flavopiridol” value ([7]; poor glucuronidators) was 91%. The Km at 3 h [8] was 642 µM.

In the case of `CCN1CCN(C(=O)N[C@@H](C(=O)N[C@@H]2C(=O)N3C(C(=O)O)=C(CSc4nnnn4C)CS[C@H]23)c2ccc(O)cc2)C(=O)C1=O` [Cefoperazone], the “eliminated by biliary secretion” value ([1]; human, in vivo) is given as 70% and the “eliminated by urinary excretion” value ([1]; human, in vivo) is given as 30%.

For `Cc1ccc(C)c(OCCCC(C)(C)C(=O)O)c1` [gemfibrozil], the “plasma concentration after 2 hours” value ([1]; single dose 600 mg) is given as “about 15 Ug/ml” and the “plasma concentration after 9 hours” value ([1]; single dose 600 mg) is given as roughly 5 Ug/ml.

For `O=C1CN=C(c2ccccc2Cl)c2cc([N+](=O)[O-])ccc2N1` [Clonazepam, 2H-1,4-Benzodiazepin-2-one, 5-(2-chlorophenyl)-1,3-dihydro-7-nitro-], the therapeutic plasma levels ([1]; human, in vivo) is given as 0.02 to 0.08 µg/mL.
